Consider 22 compounds from patent US20230082611A1, “COMPOSITIONS AND METHODS FOR THE TREATMENT OF RESPIRATORY SYNCYTIAL VIRUS” (Cidara Therapeutics, Inc., priority 2019, published 2023).

Read-outs that look alike come from different tables or passages of the source.

Data set [1] concerns HEp-2 cells. The experiment in a line: Inherent cytotoxicity run in parallel with the CPE assay (CellTiter-Glo). The data set is classed as cell-based. The settings on record: 4 days post treatment, DMSO, value in %. Here is the method: (§1) In parallel with the CPE assay, the inherent cytotoxicity of several test articles was also determined. Briefly, ten four-fold serial dilutions of each TA starting at 10 μM were prepared in triplicate for inoculation with HEp-2 cells in 96-well culture plates. The cell viability was determined four days post treatment using CellTiter-Glo kit.
In general terms: ATP-based viability assays read luminescence as a measure of living cells.

Data set [2] has as its system RSV Long strain. The experiment in a line: RSV microneutralization assay, RSV Long strain. The settings on record: read-out: RSV Long EC50. The format is cell-based. Here is the method:
(§2) Duplicate 10-fold serial dilutions of compound in DMEM with 2% HI-FBS, 1× P/S, 2 mM L-Gln were prepared in 96-well tissue culture plates at 60 μL/well. The RSV Long strain (RetroVirox, San Diego), RSV A2 strain (Virapur, San Diego), RSV B1 strain (RetroVirox, San Diego), or RSV strain CH18537 (RetroVirox, San Diego), were diluted in DMEM with 2% HI-FBS, 1× P/S, 2 mM L-Gln and 60 μL/well added to 60 μL compound for a multiplicity of infection (MOI) of 0.002 (Long, A2), 0.003 (B1), or 0.004 (CH18537). Virus only (no drug) and cells only (no virus, no drug) controls were included on each plate. The compound-virus mix was incubated for 1 h at 37° C. and 5% CO2. After 1 h, medium was removed from HEp-2 cells by aspiration and wells washed once with 100 μL/well 1×PBS pH 7.4 (Fisher cat #MT21040CM). The compound-virus mix (100 μL/well) was added to the cells and incubated for 1 h at 37° C. and 5% CO2 prior to addition of 100 μL/well of DMEM with 2% HI-FBS, 1× P/S, 2 mM L-Gln (200 μL final vol) and incubation at 37° C. and 5% CO2. On day 6 post infection, supernatant was aspirated and cells fixed with 100 μL/well ice-cold 80% acetone in 1×PBS for 20 min at 4° C. The acetone was aspirated and plates air-dried for 20 min at room temperature. The plates were washed 3× with 200 μL/well 1×PBS, 0.05% Tween-20 (PBST) and blocked with 200 μL/well 5% non-fat dry milk (Fisher cat #50-195-952) in PBST for 1 h with shaking (500 rpm) on an orbital plate shaker. The blocking solution was discarded and cells incubated with 100 μL/well mouse anti-F protein antibody (MilliporeSigma cat #MAB8599) diluted 1:2,000 in diluent (blocking solution diluted 1:1 in 1×PBS pH 7.4) for 2 h with shaking. Plates were washed 5× with 300 μL/well PBST and incubated with 100 μL/well HRP-conjugated goat anti-mouse IgG antibody (SouthernBiotech cat #1030-05) diluted 1:1,000 in diluent for 1 h with shaking. Plates were washed 5× with 300 μL/well PBST and incubated with 100 μL/well TMB substrate (Fisher cat #BDB555214) for ˜5 min. The reaction was stopped with 100 μL/well 1N H2SO4. Absorbance was read at 450 nm with an EnSpire multimode plate reader (PerkinElmer). The mean A450 for the cells only control was subtracted from all A450 values, and the percent virus neutralisation calculated for each compound concentration, relative to the virus only control.

In data set [3] the test system is RSV (Respiratory Syncytial Virus strain A2). The data set can be described thus: RSV cytopathic effects (CPE) assay. The format is cell-based. Conditions: human respiratory syncytial virus. On the procedure: The activity of anti-RSV compounds and conjugates was determined using an in vitro cell-based assay following a standard protocol in the field. Briefly, ten four-fold serial dilutions of each test article (TA) starting at 10 μM were prepared in duplicate and incubated with RSV (Respiratory Syncytial Virus strain A2) at a multiplicity of infection (MOI) of 0.01, for one hour. The RSV-TA mix was then added to HEp-2 cells seeded in 96-well plates and incubated for one hour.
(In general: Damage to the host cells serves as the signal in cytopathic effect assays.)

The nature of data set [4]: Inherent cytotoxicity run in parallel with the CPE assay (CellTiter-Glo). The format is cell-based. Conditions: human, HEp-2 cells, 4 days post treatment. Here is the method: as §1
Data set [5] concerns RSV A2 strain. The data set can be described thus: RSV microneutralization assay, RSV A2 strain. The data set is classed as cell-based. The settings on record: MOI 0.002, HEp-2 cells, day 6. Here is the method:
as §2, with “HEp-2 cells (ATCC #CCL-23) were seeded at 5E4/well/200 μL in DMEM (Fisher cat #11965118) supplemented with 10% heat-inactivated (HI) fetal bovine serum (HI-FBS; Fisher cat #10-082-147), 1× penicillin-streptomycin (P/S, 100 μg/mL; Fisher cat #MT30002C), and 1× L-glutamine (L-Gln, 2 mM; Fisher cat #25030-164) in 96-well tissue culture treated plates (Fisher cat #08-772-17) and incubated overnight at 37° C. and 5% CO2. Duplicate” for “Duplicate”

Data set [6] deals with RSV B1 strain. The experiment in a line: RSV microneutralization assay, RSV B1 strain. The format is cell-based. The settings on record: human respiratory syncytial virus; MOI 0.003, HEp-2 cells, day 6. Here is the method:
HEp-2 cells (ATCC #CCL-23) were seeded at 5E4/well/200 μL in DMEM (Fisher cat #11965118) supplemented with 10% heat-inactivated (HI) fetal bovine serum (HI-FBS; Fisher cat #10-082-147), 1× penicillin-streptomycin (P/S, 100 μg/mL; Fisher cat #MT30002C), and 1× L-glutamine (L-Gln, 2 mM; Fisher cat #25030-164) in 96-well tissue culture treated plates (Fisher cat #08-772-17) and incubated overnight at 37° C. and 5% CO2. Duplicate 10-fold serial dilutions of compound in DMEM with 2% HI-FBS, 1× P/S, 2 mM L-Gln were prepared in 96-well tissue culture plates at 60 μL/well. The RSV Long strain (RetroVirox, San Diego), RSV A2 strain (Virapur, San Diego), RSV B1 strain (RetroVirox, San Diego), or RSV strain CH18537 (RetroVirox, San Diego), were diluted in DMEM with 2% HI-FBS, 1× P/S, 2 mM L-Gln and 60 μL/well added to 60 μL compound for a multiplicity of infection (MOI) of 0.002 (Long, A2), 0.003 (B1), or 0.004 (CH18537). Virus only (no drug) and cells only (no virus, no drug) controls were included on each plate. The compound-virus mix was incubated for 1 h at 37° C. and 5% CO2. […] Absorbance was read at 450 nm with an EnSpire multimode plate reader (PerkinElmer). The mean A450 for the cells only control was subtracted from all A450 values, and the percent virus neutralisation calculated for each compound concentration, relative to the virus only control.

For data set [7], the system named is RSV. Conditions: prophylactic use; cited from earlier work.
Where [8] appears, read: human respiratory syncytial virus, HEp-2, […].
Setting [9] is: human respiratory syncytial virus, MOI 0.002, HEp-2 cells, day 6.
The mark [10] stands for this setting: 96 h, RSV A2, MOI 0.01, HEp-2 cells, day 4, crystal violet, average of duplicate wells, read-out: EC50.
[11] abbreviates: human respiratory syncytial virus.

In the case of `C[S+](C)[O-]` [DMSO], the CC50 in data set [1] stood at 1.17%.
For the compound `C#CCOCCOCCOCCOCCNCC1CN(c2nc3cc([C@@H]4CCCCN4C(=O)c4cc(Cl)ccc4NS(C)(=O)=O)nn3cc2C)C1` [Int-01], the EC50 – broadly, the midpoint of the concentration-response curve – in data set [2] (setting [8]) was found to be 98 nM.
`C#CCOCCOCCOCCOCCO[C@H]1CN(c2nc3cc([C@@H]4CCCCN4C(=O)c4cc(Cl)ccc4NS(C)(=O)=O)nn3cc2C)C[C@H]1N` [Int-02]: in data set [2] (setting [9]), the EC50 worked out at 110 nM.
Still for that read-out and setting: the value for `C#CCOCCOCCOCCOCCN[C@@H]1CN(c2nc3cc([C@@H]4CCCCN4C(=O)c4cc(Cl)ccc4NS(C)(=O)=O)nn3cc2C)C[C@@H]1O` [Int-03] was more than 1000 nM; that for `C#CCOCCOCCOCCOCCO[C@@H]1CN(c2nc3cc([C@@H]4CCCCN4C(=O)c4cc(Cl)ccc4NS(C)(=O)=O)nn3cc2C)C[C@H]1N` [Int-04] was more than 1000 nM.
Still for that read-out and setting: the value for `C#CCOCCOCCOCCOCCOCCOCCOCCCCN[C@H]1CCN(c2nc3cc([C@@H]4CCCCN4C(=O)c4cc(Cl)ccc4NS(C)(=O)=O)nn3cc2C)C1` [Int-05] was more than 1000 nM.
For the compound `C#CCOCCOCCNC(=N)N[C@H]1CCN(c2nc3cc([C@@H]4CCCCN4C(=O)c4cc(Cl)ccc4NS(C)(=O)=O)nn3cc2C)C1` [Int-6], in data set [3] (setting [10]), the concentration for a half-maximal effect (EC50) worked out at 2200 nM.
Take `C#CCOCCOCCOCCOCCN[C@H]1CCN(c2nc3cc(C4CCCCN4C(=O)c4cc(Cl)ccc4NS(C)(=O)=O)nn3cc2C)C1` (stereo partly drawn) [Int-7]: the EC50 came to 0.353 nM in data set [3] (setting [10]) and 18 nM in data set [2] (setting [9]). The same compound displayed a CC50 at 4 days in data set [4] of 10400 nM.
For the compound `C#CCOCCOCCOCCOCCOCCOCCOCCOCCN[C@H]1CCN(c2nc3cc([C@@H]4CCCCN4C(=O)c4cc(Cl)ccc4NS(C)(=O)=O)nn3cc2C)C1` [Int-8], the EC50 in data set [3] (HEp-2, 96 h) stood at 2.29 nM; in data set [2] (setting [8]), 43 nM.
`C#CCOCCOCCOCCOCCC(=O)N[C@H]1CCN(c2nc3cc([C@@H]4CCCCN4C(=O)c4cc(Cl)ccc4NS(C)(=O)=O)nn3cc2C)C1` [Int-9]: the results for the EC50 in data set [3] (setting [10]) and in data set [2] (setting [9]) were 272 nM and 1500 nM, respectively. The compound further registered a CC50 at 4 days in data set [4] of 49700 nM.
On to `C#CCOCCOCCOCCOCCN1CCN(CCCN[C@H]2CCN(c3nc4cc([C@H]5CCCCN5C(=O)c5cc(Cl)ccc5NS(C)(=O)=O)nn4cc3C)C2)CC1` [Int-10], for which, in data set [2] (setting [8]), the EC50 was 97 nM.
In the case of `C#CCOCCOCCOCCOCCC(=O)N[C@@H](CS(=O)(=O)O)C(=O)N1CCN(CCCN[C@H]2CCN(c3nc4cc([C@@H]5CCCCN5C(=O)c5ccc(Cl)cc5NS(C)(=O)=O)nn4cc3C)C2)CC1` [Int-23], the concentration giving a half-maximal response (EC50) in data set [2] (setting [9]) was more than 1000 nM.
Still for that read-out and setting: the figure for `C#CCOCCOCCOCCOCCN1CCN(CCCCN[C@H]2CCN(c3nc4cc([C@@H]5CCCCN5C(=O)c5cc(Cl)ccc5NS(C)(=O)=O)nn4cc3C)C2)CC1` [Int-24] is more than 1000 nM; for `C#CCOCCOCCOCCOCCOCCOCCOCCOCCNC(=O)CN(CC(=O)O)C(=O)CCCCN[C@H]1CCN(c2nc3cc([C@@H]4CCCCN4C(=O)c4cc(Cl)ccc4NS(C)(=O)=O)nn3cc2C)C1` [Int-25] it is 92 nM.
Turning to `C#CCOCCOCCOCCOCCOCCOCCOCCOCCNC(=O)CN(CC(=O)NCCOCCOCCOCCOCCOCCOCCOCCOCCOCCOCCOCCOC)C(=O)CCCCN[C@H]1CCN(c2nc3cc(C4CCCCN4C(=O)c4cc(Cl)ccc4NS(C)(=O)=O)nn3cc2C)C1` (stereo partly drawn) [Int-26], the EC50 in data set [2] (setting [9]) is 170 nM.
Consider `C#CCOCCOCCOCCOCCC(=O)N(CC(=O)NCCOCCOCCOCCOCCOCCOCCOCCOCCOCCOCCOCCOC)CC(=O)NCCn1cc(COCCOCCOCCOCCOCCOCCOCCCCN[C@H]2CCN(c3nc4cc([C@@H]5CCCCN5C(=O)c5cc(Cl)ccc5NS(C)(=O)=O)nn4cc3C)C2)nn1` [Int-27], for which the EC50 in data set [2] (setting [9]) was determined as 200 nM.
Still for that read-out and setting: the value for `C#CCOCCOCCOCCOCCC(=O)NCCCCn1c(CN2C(=O)C3(CCN(C(=O)OC(C)C)CC3)c3ccncc32)nc2cc(Cl)ccc21` [Int-34] was 0.13 nM.
Regarding `C#CCOCCOCCOCCOCCC(=O)NCCCCn1c(CN2C(=O)C3(CCN(C(=O)OC(C)(C)C)CC3)c3ccncc32)nc2cc(Cl)ccc21` [Int-35], the 50% effective concentration (EC50) in data set [2] (setting [9]) was 0.34 nM; in data set [5] (setting [11]), 0.74 nM.
As for `C#CCOCCOCCOCCOCCn1c(CN2C(=O)C3(CCN(C(=O)OC(C)(C)C)CC3)c3ccncc32)nc2cc(Cl)ccc21` [Int-41], the results for the EC50 in data set [6], in data set [2] (setting [9]) and in data set [5] (setting [11]) were 3.6 nM, 14 nM and 15 nM, respectively.
`NC(=O)c1ncn([C@@H]2O[C@H](CO)[C@@H](O)[C@H]2O)n1` [Ribavirin, reference compound]: in data set [3] (setting [10]), the half-maximal effective concentration (EC50) amounted to 25800 nM. Also, the CC50 at 4 days in data set [4] was found to be 174000 nM.
Take `Cc1nnnn1N=Cc1ccc(O)c(C(c2ccc(O)cc2)c2cc(C=Nn3nnnc3C)ccc2O)c1` (stereo not drawn) [VP14637, MDT 637, reference compound]: the EC50 in data set [2] (setting [9]) was determined as 0.09 nM.
Regarding Palivizumab, in data set [7], the “effective at reducing hospitalization rates” value is given as 60%. In addition, the EC50 stood at 17 nM in data set [2] (MOI 0.002, HEp-2 cells, day 6) and 21 nM in data set [5].
